From US7445894B2, “Compositions and methods for detection and isolation of phosphorylated molecules” (priority 2002, dated 2008)

How the values were obtained:
β-casein = biological target: T1, β-casein (Bos taurus, UniProt P02666); assay: Phosphoprotein detection on HydroGel microarray; conditions: pentaphosphorylated protein, binding solution with gallium chloride
T1 sequence (P02666 16-224): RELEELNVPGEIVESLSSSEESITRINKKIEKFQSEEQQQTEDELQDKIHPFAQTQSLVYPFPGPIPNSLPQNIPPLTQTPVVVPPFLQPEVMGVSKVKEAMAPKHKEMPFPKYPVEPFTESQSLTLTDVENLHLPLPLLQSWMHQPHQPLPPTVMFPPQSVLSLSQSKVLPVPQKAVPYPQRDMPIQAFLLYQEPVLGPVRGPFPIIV
Procedure: The protein was loaded in a two-fold dilution series from 166 pg-0.324 pg on the microarray.
Four specific, purified proteins including β-casein, ovalbumin, pepsin and bovine serum albumin were arrayed from a source plate (384 well plate) at a concentration of 0.975 μg/mL-0.5 mg/mL in water, onto HydroGel coated slides (Perkin Elmer), using the BioChip Arrayer™ (Packard Instrument Co., Meriden, Conn.). The BioChip Arrayer™ utilizes a PiezoTip™ Dispenser consisting of 4 glass capillaries. Proteins were dispensed from the PiezoTip™ by droplets 333 pL in volume to create array spots 175 microns in diameter with a 500 micron horizontal and vertical pitch (pitch=center to center spacing of spots). Proteins were arrayed in duplicate in four rows, with 10 dilution points, resulting in an array of 160 spots. The resulting concentration range of the array was 166.5 pg/spot-0.325 pg/spot. For detection of phosphoproteins, slides were incubated for 1 hour on a rotator in 1 μM of Compound 2, in buffer containing 0.5 M NaCl, 20% 1,2-propanediol, 1 μM GaCl3, and 0.05 M NaOAc, pH 4.0. Slides were then washed for 1 hour on a rotator in 0.05 M NaOAc, pH 4.0, containing 10% methanol followed by a 15 minute water wash. […] Phosphate content per protein was determined to be as follows: β-casein, five phosphates; ovalbumin, two phosphates; pepsin, one phosphate; and BSA, no phosphates.

lysozyme = biological target: T2, lysozyme (Gallus gallus, UniProt P00698); assay: Fluorescence polarization of Compound 2-Ga3+ with non-phosphorylated control protein; type: binding; conditions: 1.0 μM Compound 2, 100 μM lysozyme plus 1 μM gallium chloride
T2 construct: purchased Sigma Chemical Company L-7651
Procedure: First, an assay was conducted with a (1) phosphoprotein (ovalbumin) and a (2) control non-phosphorylated protein (lysozyme). A modified binding solution containing 1.0 μM Compound 2 was incubated in 50 mM 2-(N-morpholino)ethanesulfonic acid (pH 3.0 to 3.5), 500 mM NaCl at room temperature in parallel to solutions containing, in addition, (a) 1 μM gallium chloride, (b) 100 μM lysozyme plus 1 μM gallium chloride, or (c) and 100 μM ovalbumin plus 1 μM gallium chloride. The fluorescence polarization of the resulting solutions was then measured in a fluorescence spectrophotometer with excitation at 530 nm and emission at 545 to 700 nm. The integrated polarized emission spectra yielded anisotropy “r values” of: r=0.10+/−0.003+/−0.02 (Compound 2 plus gallium); r=0.10+/−0.002 (Compound 2 plus lysozyme non-phosphorylated control); r=0.34+/−0.002 (Compound 2 plus gallium plus ovalbumin), indicating phosphorylation-dependent binding of the Compound 2 to this phosphoprotein (see FIG. 10A)

T2 sequence (P00698 19-147): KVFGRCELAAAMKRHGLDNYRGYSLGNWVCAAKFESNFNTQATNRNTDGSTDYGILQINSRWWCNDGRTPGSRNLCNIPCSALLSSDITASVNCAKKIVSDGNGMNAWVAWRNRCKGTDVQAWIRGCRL

amount detected on HydroGel microarray (β-casein): 0.65 pg
anisotropy r value (lysozyme): 0.10+/−0.002
Substance: Rhod-5F [Compound 2]
